Experimental data: patent US9115137B2, “2,3,4,5-tetrahydro-1H-pyrido[4,3-B]indole compounds and methods of use thereof” (priority 2008, dated 2015)

What was measured:
[1] = biological target: T1, human recombinant histamine H2 receptor (Homo sapiens, UniProt P25021); assay: Histamine H2 radioligand binding ([125I]aminopotentidine); settings: compound at 1 μM; CHO K1 cells; read-out: Histamine Binding (1 μM) H2, percent inhibition of specific binding
T1 construct: expressed in transfected cells; host or cells: CHO-K1 cells
T1 sequence (P25021 whole entry): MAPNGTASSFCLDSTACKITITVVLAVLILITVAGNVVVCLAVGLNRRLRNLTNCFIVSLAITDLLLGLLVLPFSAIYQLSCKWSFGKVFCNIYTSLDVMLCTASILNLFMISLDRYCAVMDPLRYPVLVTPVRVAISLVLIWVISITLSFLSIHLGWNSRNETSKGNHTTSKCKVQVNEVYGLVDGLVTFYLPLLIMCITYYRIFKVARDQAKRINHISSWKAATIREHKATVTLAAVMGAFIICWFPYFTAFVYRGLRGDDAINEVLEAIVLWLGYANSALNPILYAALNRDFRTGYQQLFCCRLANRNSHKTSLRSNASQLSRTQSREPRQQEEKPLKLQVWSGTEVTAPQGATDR
Experimental: To evaluate in radioligand binding assays the activity of compounds of the invention, human recombinant histamine H2 receptor expressed in Chinese hamster ovary (CHO) K1 cells (Ruat, M., Proc. Natl. Acad. Sci. USA. 87(5):1658, 1990) in a 50 mM Phosphate buffer, pH 7.4 was used. Compounds of the invention were incubated with 0.1 nM [^125I]aminopotentidine for 120 minutes at 25° C. Non-specific binding was estimated in the presence of 3 μM Tiotidine. Receptor proteins were filtered and washed, the filters were then counted to determine [^125I]Aminopotentidine specifically bound. Compounds were screened at 1 μM, using 1% DMSO as vehicle. Biochemical assay results are presented as the percent inhibition of specific binding in Table 5.

[2] = biological target: T2, human recombinant adrenergic α1D receptor (Homo sapiens, UniProt P25100); assay: Adrenergic α1D radioligand binding ([3H]Prozosin); settings: compound at 1 μM; HEK-293 cells; read-out: Adrenergic (1 μM) α1D, percent inhibition of specific binding
T2 construct: expressed in transfected cells; host or cells: HEK-293 cells
T2 sequence (P25100 1-572): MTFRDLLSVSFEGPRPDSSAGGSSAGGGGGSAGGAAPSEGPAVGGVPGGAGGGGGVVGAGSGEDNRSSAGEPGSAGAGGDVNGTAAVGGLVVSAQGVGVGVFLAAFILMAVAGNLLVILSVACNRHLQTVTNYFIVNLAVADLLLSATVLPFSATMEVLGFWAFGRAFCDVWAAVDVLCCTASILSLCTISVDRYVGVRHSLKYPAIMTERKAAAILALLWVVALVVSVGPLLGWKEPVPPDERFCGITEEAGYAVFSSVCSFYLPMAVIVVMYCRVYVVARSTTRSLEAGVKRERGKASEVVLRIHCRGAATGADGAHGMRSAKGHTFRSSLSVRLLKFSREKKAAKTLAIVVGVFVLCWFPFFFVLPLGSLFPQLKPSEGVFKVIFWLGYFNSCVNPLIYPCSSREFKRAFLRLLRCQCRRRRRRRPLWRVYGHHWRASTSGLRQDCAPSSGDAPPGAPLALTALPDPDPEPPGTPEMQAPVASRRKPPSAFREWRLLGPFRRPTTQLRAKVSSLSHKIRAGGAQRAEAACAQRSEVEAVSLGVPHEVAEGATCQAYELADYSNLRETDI
Experimental: To evaluate in radioligand binding assays the activity of compounds of the invention, human recombinant adrenergic α1D receptor expressed in human embryonic kidney (HEK-293) cells (Kenny, B. A. et al. Br. J. Pharmacol. 115(6):981, 1995) in a 50 mM Tris-HCl buffer, pH 7.4, was used. Compounds of invention were incubated with 0.6 nM [^3H]Prozosin for 60 minutes at 25° C. Non-specific binding was estimated in the presence of 10 μM phentolamine. Receptor proteins were filtered and washed, the filters were then counted to determine [^3H]Prozosin specifically bound. Compounds were screened at 1 μM or lower, using 1% DMSO as vehicle. Biochemical assay results are presented as the percent inhibition of specific binding in Table 6.

[3] = biological target: T3, human recombinant serotonin (5-Hydroxytryptamine) 5-HT2C receptor (Homo sapiens, UniProt P28335); assay: Serotonin 5-HT2C radioligand binding ([3H]Mesulergine); settings: compound at 1 μM; CHO-K1 cells; read-out: Serotonin (1 μM) 5-HT2C, percent inhibition of specific binding
T3 construct: expressed in transfected cells; host or cells: CHO-K1 cells
T3 sequence (P28335 33-458): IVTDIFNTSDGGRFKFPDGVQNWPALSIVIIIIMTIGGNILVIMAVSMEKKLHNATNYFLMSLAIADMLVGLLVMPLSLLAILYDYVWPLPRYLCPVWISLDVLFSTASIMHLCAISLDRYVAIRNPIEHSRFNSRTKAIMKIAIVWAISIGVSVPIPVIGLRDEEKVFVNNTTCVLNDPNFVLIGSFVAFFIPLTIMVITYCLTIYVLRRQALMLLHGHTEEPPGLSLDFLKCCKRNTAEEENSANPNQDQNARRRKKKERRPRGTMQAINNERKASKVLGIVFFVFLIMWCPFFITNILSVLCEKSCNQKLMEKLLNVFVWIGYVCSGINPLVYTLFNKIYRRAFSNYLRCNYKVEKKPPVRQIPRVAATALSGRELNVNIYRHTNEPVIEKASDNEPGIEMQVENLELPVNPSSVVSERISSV
Experimental: To evaluate in radioligand binding assays the activity of compounds of the invention, human recombinant serotonin (5-Hydroxytryptamine) 5-HT2C receptor expressed in Chinese hamster ovary (CHO-K1) cells (Wolf, W. A. and Schutz, J. S., J. Neurochem. 69:1449, 1997) in a modified Tris-HCl buffer (50 mM Tris-HCl, pH 7.4, 0.1% Ascorbic Acid, 10 μM Pargyline) was used. Compounds of the invention were incubated with 1 nM [^3H]Mesulergine for 60 minutes at 25° C. Non-specific binding was estimated in the presence of 1 μM Mianserin. Receptor proteins were filtered and washed, the filters were then counted to determine [^3H]Mesulergine specifically bound. Compounds were screened at 1 μM or lower, using 1% DMSO as vehicle. Biochemical assay results are presented as the percent inhibition of specific binding in Table 7.

`Cc1ccc2c(c1)c1c(n2CCC(=O)Nc2ccccc2)CCN(C)C1` [Compound 29] was tested, and the inhibition at 1 µM [1] was 34%, the inhibition at 1 µM [2] was 74% and the inhibition at 1 µM [3] was 73%.

`CN1CCc2c(c3cc(Cl)ccc3n2CCC(=O)NC2CCCC2)C1` [Compound 31, 3-(8-chloro-1,2,3,4-tetrahydro-2-methylpyrido[4,3-b]indol-5-yl)-N-cyclopentylpropanamide] was tested, and the inhibition at 1 µM [1] was 20%, the inhibition at 1 µM [2] was 61% and the inhibition at 1 µM [3] was 76%.

Molecule `C#CCn1c2c(c3cc(C)ccc31)CN(C)CC2` [CD73, 2,8-dimethyl-5-(prop-2-ynyl)-2,3,4,5-tetrahydro-1H-pyrido[4,3-b]indole] has an inhibition at 1 µM [1] of 19%, an inhibition at 1 µM [2] of 57% and an inhibition at 1 µM [3] of 92%.

`CCNC(=O)Cn1c2c(c3cc(C)ccc31)CN(C)CC2` [Compound 22, N-ethyl-2-(1,2,3,4-tetrahydro-2,8-dimethylpyrido[4,3-b]indol-5-yl)acetamide] gave an inhibition at 1 µM [1] of 11%, an inhibition at 1 µM [2] of 23% and an inhibition at 1 µM [3] of 81%.

In the case of `CN1CCc2c(c3cc(Cl)ccc3n2CCC(=O)OCC2CCCCC2)C1` [Compound 20, cyclohexylmethyl 3-(8-chloro-1,2,3,4-tetrahydro-2-methylpyrido[4,3-b]indol-5-yl)propanoate], the inhibition at 1 µM [1] is reported as 93%, the inhibition at 1 µM [2] is reported as 90% and the inhibition at 1 µM [3] is reported as 88%.

`Cc1ccc2c(c1)c1c(n2CC(N)=O)CCN(C)C1` [Compound 64, 2-(1,2,3,4-tetrahydro-2,8-dimethylpyrido[4,3-b]indol-5-yl)acetamide] was tested, and the inhibition at 1 µM [1] was -3%, the inhibition at 1 µM [2] was 20% and the inhibition at 1 µM [3] was 45%.

For `CN1CCc2c(c3cc(Cl)ccc3n2CC(=O)N(C)C)C1` [Compound 48, 2-(8-chloro-1,2,3,4-tetrahydro-2-methylpyrido[4,3-b]indol-5-yl)-N,N-dimethylacetamide], the inhibition at 1 µM [1] was 4%, the inhibition at 1 µM [2] was 10% and the inhibition at 1 µM [3] was 37%.

In the case of `Cc1ccc2c(c1)c1c(n2CCNC(=O)c2ccncc2C)CCN(C)C1` [Compound 69, N-(2-(1,2,3,4-tetrahydro-2,8-dimethylpyrido[4,3-b]indol-5-yl)ethyl)-3-methylpyridine-4-carboxamide], the inhibition at 1 µM [1] is reported as 14%, the inhibition at 1 µM [2] is reported as 30% and the inhibition at 1 µM [3] is reported as 24%.

`CC(C)OC(=O)Cn1c2c(c3cc(Cl)ccc31)CN(C)CC2` [Compound 11, isopropyl 2-(8-chloro-1,2,3,4-tetrahydro-2-methylpyrido[4,3-b]indol-5-yl)acetate] was tested, and the inhibition at 1 µM [1] was 7%, the inhibition at 1 µM [2] was 38% and the inhibition at 1 µM [3] was 71%.

Molecule `Cc1ccc2c(c1)c1c(n2CCC(=O)Nc2ccc(F)cc2)CCN(C)C1` [Compound 47, N-(4-fluorophenyl)-3-(1,2,3,4-tetrahydro-2,8-dimethylpyrido[4,3-b]indol-5-yl)propanamide] has an inhibition at 1 µM [1] of 53%, an inhibition at 1 µM [2] of 80% and an inhibition at 1 µM [3] of 90%.

In the case of `Cc1ccc2c(c1)c1c(n2CCC(=O)NC(C)C)CCN(C)C1` [Compound 53], the inhibition at 1 µM [1] is reported as 12%, the inhibition at 1 µM [2] is reported as 62% and the inhibition at 1 µM [3] is reported as 51%.

For `CN1CCc2c(c3cc(Cl)ccc3n2CCO)C1` [CD89, 2-(8-chloro-2-methyl-3,4-dihydro-1H-pyrido[4,3-b]indol-5(2H)-yl)ethanol], the inhibition at 1 µM [1] was 14%, the inhibition at 1 µM [2] was 69% and the inhibition at 1 µM [3] was 84%.

Work on `Cc1ccc2c(c1)c1c(n2CCNC(=O)C2CCCCC2)CCN(C)C1` [Compound 62, N-(2-(1,2,3,4-tetrahydro-2,8-dimethylpyrido[4,3-b]indol-5-yl)ethyl)cyclohexanecarboxamide] yielded an inhibition at 1 µM [1] of 39%, an inhibition at 1 µM [2] of 64% and an inhibition at 1 µM [3] of 54%.

With `Cc1ccc2c(c1)c1c(n2CCNC(=O)c2ccc(F)cc2)CCN(C)C1` [Compound 66, 4-fluoro-N-(2-(1,2,3,4-tetrahydro-2,8-dimethylpyrido[4,3-b]indol-5-yl)ethyl)benzamide] the inhibition at 1 µM [1] was 49%, the inhibition at 1 µM [2] was 76% and the inhibition at 1 µM [3] was 93%.

In the case of `Cc1ccc2c(c1)c1c(n2CCNC(=O)C2CCNCC2)CCN(C)C1` [Compound 65, N-(2-(1,2,3,4-tetrahydro-2,8-dimethylpyrido[4,3-b]indol-5-yl)ethyl)piperidine-4-carboxamide], the inhibition at 1 µM [1] is reported as -7%, the inhibition at 1 µM [2] is reported as 11% and the inhibition at 1 µM [3] is reported as 24%.

`Cc1ccc2c(c1)c1c(n2CCC(=O)NCC2CCCCC2)CCN(C)C1` [Compound 30, N-(cyclohexylmethyl)-3-(1,2,3,4-tetrahydro-2,8-dimethylpyrido[4,3-b]indol-5-yl)propanamide] showed an inhibition at 1 µM [1] of 41%, an inhibition at 1 µM [2] of 73% and an inhibition at 1 µM [3] of 93%.

In the case of `CCOC(=O)Cn1c2c(c3cc(Cl)ccc31)CN(C)CC2` [Compound 10, ethyl 2-(8-chloro-1,2,3,4-tetrahydro-2-methylpyrido[4,3-b]indol-5-yl)acetate], the inhibition at 1 µM [1] is reported as 28%, the inhibition at 1 µM [2] is reported as 50% and the inhibition at 1 µM [3] is reported as 92%.

`CCOC(=O)CCn1c2c(c3cc(C)ccc31)CN(C)CC2` [CD1, ethyl 3-(1,2,3,4-tetrahydro-2,8-dimethylpyrido[4,3-b]indol-5-yl)propanoate] gave an inhibition at 1 µM [1] of 35%, an inhibition at 1 µM [2] of 54% and an inhibition at 1 µM [3] of 93%.

Work on `CCCCOC(=O)Cn1c2c(c3cc(Cl)ccc31)CN(C)CC2` [Compound 52, butyl 2-(8-chloro-1,2,3,4-tetrahydro-2-methylpyrido[4,3-b]indol-5-yl)acetate] yielded an inhibition at 1 µM [1] of 23%, an inhibition at 1 µM [2] of 58% and an inhibition at 1 µM [3] of 85%.

`CN1CCc2c(c3cc(Cl)ccc3n2CC(=O)NC2CCCC2)C1` [Compound 27, 2-(8-chloro-1,2,3,4-tetrahydro-2-methylpyrido[4,3-b]indol-5-yl)-N-cyclopentylacetamide] was tested, and the inhibition at 1 µM [1] was 5%, the inhibition at 1 µM [2] was 18% and the inhibition at 1 µM [3] was 28%.

`CN1CCc2c(c3cc(Cl)ccc3n2CCC(=O)O)C1` [CD55, 3-(8-chloro-1,2,3,4-tetrahydro-2-methylpyrido[4,3-b]indol-5-yl)propanoic acid] was tested, and the inhibition at 1 µM [1] was -2%, the inhibition at 1 µM [2] was 14% and the inhibition at 1 µM [3] was 11%.

`Cc1ccc2c(c1)c1c(n2CCNC(=O)C2CCCNC2)CCN(C)C1` (stereo not drawn) [Compound 9, N-(2-(1,2,3,4-tetrahydro-2,8-dimethylpyrido[4,3-b]indol-5-yl)ethyl)piperidine-3-carboxamide] was tested, and the inhibition at 1 µM [1] was -44%, the inhibition at 1 µM [2] was 11% and the inhibition at 1 µM [3] was 29%.

`CN1CCc2c(c3cc(Cl)ccc3n2CCC#N)C1` [CD94, 3-(8-chloro-2-methyl-3,4-dihydro-1H-pyrido[4,3-b]indol-5(2H)-yl)propanenitrile] was tested, and the inhibition at 1 µM [1] was 2%, the inhibition at 1 µM [2] was 74% and the inhibition at 1 µM [3] was 71%.
